Test results from patent publication US20060106049A1, “Histone deacetylase inhibitors and methods of use” (The University of chicago, priority 2004, published 2006).
“Also recorded” adds a separate entry of the source.

What was measured:
[1] = system: MDR1; assay: Gene re-expression by REAL-time RT-PCR in peripheral blood mononuclear cells (MDR1); format: in vivo, human; details: hr 4 on days 1 and 8; normalized to ABL; p=0.04
Description: (§1) FK228 (Fujisawa, Osaka, Japan) was administered intravenously over four hours at a dose of 13.3 mg/m^2/d on days 1, 8, and 15 of a 28-day cycle. Peripheral blood mononuclear cells were obtained prior to (hour 0) and 4 hours (hour 4) and 24 hours (hour 24) after dosing on days 1 and 8 and used to evaluate histone acetylation by flow cytometry and gene re-expression by REAL-time RT-PCR. Target genes of interest include MDR1, a target of HDI-mediated upregulation, and p15^INK4B (P15), a target of DNA hypermethylation in AML.
(§2) MDR1 and p15 copy numbers were expressed as a normalized quotient of MDR1 and p15, respectively, to the housekeeping gene ABL.

[2] = system: H3 acetylation; assay: Histone acetylation by flow cytometry in peripheral blood mononuclear cells; format: in vivo, human
Description: as §1

[3] = system: bone marrow blasts; assay: Phase II study of depsipeptide in relapsed or refractory AML: anti-leukemic response; format: in vivo, human
From the text: (§3) Eighteen patients (median age=60 years, age range=25-77 years) with relapsed or refractory AML were enrolled in a multicenter Phase II study of depsipeptide for the treatment of AML. Patients were divided into two groups upon entry into the study: Group A (n=14), which included patients without specific chromosomal abnormalities correlated with recruitment of histone deacetylases; and Group B (n=4), which included patients with chromosomal aberrations associated with recruitment of histone deacetylases, such as t(8;21), inv 16, or t(15; 17).
as §1

[4] = Tolerability in Phase II AML study; format: in vivo, human; details: AML patients, 13.3 mg/m2/d iv days 1, 8, 15 of 28-day cycle
From the text: as §3, §1

[5] = system: p15INK4B (P15); assay: Gene re-expression by REAL-time RT-PCR in peripheral blood mononuclear cells (p15); format: in vivo, human; details: normalized to ABL; p-0.01
Description: as §1, §2

[6] = system: HDAC; details: cited from earlier work
[7] = system: HDAC; details: formed from FK228 by dithiothreitol reduction in vitro; cited from earlier work

Structure (SMILES)	overall mean increase in MDR1 expression [1] [%]	patients exhibiting increase H3 acetylation ([2]; 4 of 14 patients) [%]	patients exhibiting an increase in H3 acetylation ([2]; Group B cohort (3 of 4), at 4 and/or 24 hours after dosing) [%]	response of patient having a t(4;21) translocation ([3]; 13.3 mg/m2/d iv days 1, 8, 15 of 28-day cycle)	objective evidence of response (complete or partial remission) or other anti-leukemic activity ([3]; Group A (n=14), patients without chromosomal abnormalities correlated with HDAC recruitment, 13.3 mg/m2/d iv over 4 h, days 1, 8, 15 of 28-day cycle)	patients exhibiting marked reduction of bone marrow blasts ([3]; Group B (n=4), chromosomal aberrations associated with HDAC recruitment, after one cycle, 13.3 mg/m2/d iv) [%]	time to increase in bone marrow blasts following cessation of therapy ([3]; both responding Group B patients, antileukemic effect short-lived) [days]	hematopoiesis in responding patients ([3]; responders of Group B, following the second cycle of treatment, 13.3 mg/m2/d iv)	bone marrow blast percentage in responding patients ([3]; responders with AML1 translocations (t(8;21), t(4;21)), normocellular marrow after one cycle, 13.3 mg/m2/d iv) [%]	most common adverse effects [4]	tolerability [4]	mean increase in p15 expression [5] [%]	HDAC inhibition in vivo [6]	HDAC inhibition [7]
C/C=C1\NC(=O)[C@H]2CSSCC/C=C/[C@H](CC(=O)N[C@H](C(C)C)C(=O)N2)OC(=O)[C@H](C(C)C)NC1=O [FK228]	41	28	75	responded to the treatment	No objective evidence of response	50	≤ 30	return to substantially normal hematopoiesis; also recorded: recovery of near-normal hematopoiesis	< 5	grade ½ nausea, vomiting, and fatigue	well tolerated	91	strongly inhibits HDAC	
C/C=C1\NC(=O)[C@@H](CS)NC(=O)[C@@H](C(C)C)NC(=O)C[C@@H](/C=C/CCS)OC(=O)[C@H](C(C)C)NC1=O [FR135313]														capable of inhibiting HDAC
